The assay deals with human plasma kallikrein (hPK) (Homo sapiens, UniProt P03952). Kind of assay: Enzyme inhibition assay, human plasma kallikrein. Conditions: for fold reduction in affinity to kallikrein compared to wildtype peptide: versus Ac-06-34-18(TMB)-NH2.

Numbered stars: 1 amine (or outer) side, 2 acyl side, 3 side chain; on linkers, the order of the positions; unused ones are H or OH. Bridge positions count the residues as written; N and C are the ends. Square brackets hold non-standard residues; d marks the D form. Peptide text beside a SMILES is read from it. TBMB = c1c(C[*:1])cc(C[*:3])cc1C[*:2]; NMeC = CN[C@@H](CS)C(=O)O; NMeS = CN[C@@H](CO)C(=O)O; NMeA = CN[C@@H](C)C(=O)O

Regarding `CC(=O)N[C@H]1CSCc2cc3cc(c2)CSC[C@H](NC(=O)[C@H](Cc2ccc(NC(=N)N)cc2)NC(=O)[C@H](C)NC(=O)[C@@H]2CCCN2C(=O)[C@H](Cc2c[nH]c4ccccc24)NC(=O)[C@H](CO)NC1=O)C(=O)N[C@@H](CC(C)C)C(=O)N[C@@H](Cc1c[nH]cn1)C(=O)N[C@@H](CCC(N)=O)C(=O)N[C@@H](CC(=O)O)C(=O)N[C@@H](CC(C)C)C(=O)N[C@H](C(N)=O)CSC3` [Ac-(06-34-18) 4GuanPhe5], the Ki (commonly the dissociation constant of the complex between target and ligand, obtained from inhibition or displacement) was 0.3 nM; the “fold reduction in affinity to kallikrein compared to wildtype peptide” value (“fold reduction in affinity to kallikrein” for short) amounted to 2 fold.
Molecule `CC(=O)N[C@H]1CSCc2cc3cc(c2)CSC[C@H](NC(=O)[C@H](CCCNC(=N)N)NC(=O)[C@H](C)NC(=O)[C@H](C)NC(=O)[C@H](C)NC(=O)[C@H](CO)NC1=O)C(=O)N[C@@H](CC(C)C)C(=O)N[C@@H](Cc1c[nH]cn1)C(=O)N[C@@H](CCC(N)=O)C(=O)N[C@@H](CC(=O)O)C(=O)N[C@@H](CC(C)C)C(=O)N[C@H](C(N)=O)CSC3` [Ac-(06-34-18) A2A3] (Ac-CSAAARCLHQDLC-NH2; linker 1-7-13 via TBMB) had a Ki of 18500 nM.
The molecule `CC(=O)N[C@H]1CSCc2cc3cc(c2)CSC[C@H](NC(=O)[C@H](CCCNC(=N)N)NC(=O)[C@H](C)NC(=O)[C@H](CCC(N)=O)NC(=O)[C@H](C)NC(=O)[C@H](CO)NC1=O)C(=O)N[C@@H](CC(C)C)C(=O)N[C@@H](Cc1c[nH]cn1)C(=O)N[C@@H](CCC(N)=O)C(=O)N[C@@H](CC(=O)O)C(=O)N[C@@H](CC(C)C)C(=O)N[C@H](C(N)=O)CSC3` [Ac-(06-34-18) A2Q3] (Ac-CSAQARCLHQDLC-NH2; linker 1-7-13 via TBMB) had an inhibitory constant (Ki) of 15800 nM.
Still for that read-out and setting: to `CC(=O)N[C@H]1CSCc2cc3cc(c2)CSC[C@H](NC(=O)[C@H](CCNC(=N)N)NC(=O)[C@H](C)NC(=O)[C@@H]2CCCN2C(=O)[C@H](Cc2c[nH]c4ccccc24)NC(=O)[C@H](CO)NC1=O)C(=O)N[C@@H](CC(C)C)C(=O)N[C@@H](Cc1c[nH]cn1)C(=O)N[C@@H](CCC(N)=O)C(=O)N[C@@H](CC(=O)O)C(=O)N[C@@H](CC(C)C)C(=O)N[C@H](C(N)=O)CSC3` [Ac-(06-34-18) Agb5] belongs 83 nM; to `CC(=O)N[C@H]1CSCc2cc3cc(c2)CSC[C@H](NC(=O)[C@H](CNC(=N)N)NC(=O)[C@H](C)NC(=O)[C@@H]2CCCN2C(=O)[C@H](Cc2c[nH]c4ccccc24)NC(=O)[C@H](CO)NC1=O)C(=O)N[C@@H](CC(C)C)C(=O)N[C@@H](Cc1c[nH]cn1)C(=O)N[C@@H](CCC(N)=O)C(=O)N[C@@H](CC(=O)O)C(=O)N[C@@H](CC(C)C)C(=O)N[C@H](C(N)=O)CSC3` [Ac-(06-34-18) Agp5], 1770 nM.
Same read-out and setting: the result for `CC(=O)N[C@H]1CSCc2cc3cc(c2)CSC[C@H](NC(=O)[C@H](CCCNC(N)=O)NC(=O)[C@H](C)NC(=O)[C@@H]2CCCN2C(=O)[C@H](Cc2c[nH]c4ccccc24)NC(=O)[C@H](CO)NC1=O)C(=O)N[C@@H](CC(C)C)C(=O)N[C@@H](Cc1c[nH]cn1)C(=O)N[C@@H](CCC(N)=O)C(=O)N[C@@H](CC(=O)O)C(=O)N[C@@H](CC(C)C)C(=O)N[C@H](C(N)=O)CSC3` [Ac-(06-34-18) CitS] reads 7860 nM.
For `CC(=O)N[C@H]1CSCc2cc3cc(c2)CSC[C@H](NC(=O)[C@H](CCCNC(=N)N)NC(=O)[C@@H](C)NC(=O)[C@@H]2CCCN2C(=O)[C@H](Cc2c[nH]c4ccccc24)NC(=O)[C@H](CO)NC1=O)C(=O)N[C@@H](CC(C)C)C(=O)N[C@@H](Cc1c[nH]cn1)C(=O)N[C@@H](CCC(N)=O)C(=O)N[C@@H](CC(=O)O)C(=O)N[C@@H](CC(C)C)C(=O)N[C@H](C(N)=O)CSC3` [Ac-(06-34-18) D-Ala4], the inhibition constant Ki was 1200 nM and the “fold reduction in affinity to kallikrein” value turned out to be 7000 fold.
In the same order, the values of `CC(=O)N[C@H]1CSCc2cc3cc(c2)CSC[C@H](NC(=O)[C@@H](CCCNC(=N)N)NC(=O)[C@H](C)NC(=O)[C@@H]2CCCN2C(=O)[C@H](Cc2c[nH]c4ccccc24)NC(=O)[C@H](CO)NC1=O)C(=O)N[C@@H](CC(C)C)C(=O)N[C@@H](Cc1c[nH]cn1)C(=O)N[C@@H](CCC(N)=O)C(=O)N[C@@H](CC(=O)O)C(=O)N[C@@H](CC(C)C)C(=O)N[C@H](C(N)=O)CSC3` [Ac-(06-34-18) D-Arg5] are 52 nM and 300 fold.
Molecule `CC(=O)N[C@H]1CSCc2cc3cc(c2)CSC[C@@H](NC(=O)[C@H](CCCNC(=N)N)NC(=O)[C@H](C)NC(=O)[C@@H]2CCCN2C(=O)[C@H](Cc2c[nH]c4ccccc24)NC(=O)[C@H](CO)NC1=O)C(=O)N[C@@H](CC(C)C)C(=O)N[C@@H](Cc1c[nH]cn1)C(=O)N[C@@H](CCC(N)=O)C(=O)N[C@@H](CC(=O)O)C(=O)N[C@@H](CC(C)C)C(=O)N[C@H](C(N)=O)CSC3` [Ac-(06-34-18) D-Cys2] showed an inhibition constant Ki of 234 nM.
The same measure, in the same setting: to `CC(=O)N[C@H]1CSCc2cc3cc(c2)CSC[C@H](NC(=O)[C@H](CCCNC(=N)N)NC(=O)[C@H](C)NC(=O)[C@H]2CCCN2C(=O)[C@H](Cc2c[nH]c4ccccc24)NC(=O)[C@H](CO)NC1=O)C(=O)N[C@@H](CC(C)C)C(=O)N[C@@H](Cc1c[nH]cn1)C(=O)N[C@@H](CCC(N)=O)C(=O)N[C@@H](CC(=O)O)C(=O)N[C@@H](CC(C)C)C(=O)N[C@H](C(N)=O)CSC3` [Ac-(06-34-18) D-Pro3] belongs 680 nM.
With `CC(=O)N[C@H]1CSCc2cc3cc(c2)CSC[C@H](NC(=O)[C@H](CCCNC(=N)N)NC(=O)[C@H](C)NC(=O)[C@@H]2CCCN2C(=O)[C@@H](Cc2c[nH]c4ccccc24)NC(=O)[C@H](CO)NC1=O)C(=O)N[C@@H](CC(C)C)C(=O)N[C@@H](Cc1c[nH]cn1)C(=O)N[C@@H](CCC(N)=O)C(=O)N[C@@H](CC(=O)O)C(=O)N[C@@H](CC(C)C)C(=O)N[C@H](C(N)=O)CSC3` [Ac-(06-34-18) D-Trp2], the affinity corresponds to a Ki of 7560 nM and the “fold reduction in affinity to kallikrein” value came to 45000 fold.
On to `CC(=O)N[C@H]1CSCc2cc3cc(c2)CSC[C@H](NC(=O)[C@H](CCCNC(=N)N)NC(=O)[C@H](C)N(C)C(=O)[C@@H]2CCCN2C(=O)[C@H](Cc2c[nH]c4ccccc24)NC(=O)[C@H](CO)NC1=O)C(=O)N[C@@H](CC(C)C)C(=O)N[C@@H](Cc1c[nH]cn1)C(=O)N[C@@H](CCC(N)=O)C(=O)N[C@@H](CC(=O)O)C(=O)N[C@@H](CC(C)C)C(=O)N[C@H](C(N)=O)CSC3` [Ac-(06-34-18) NMeAla4] (Ac-CSWP[NMeA]RCLHQDLC-NH2; linker 1-7-13 via TBMB), for which the affinity corresponds to a Ki of 343 nM. In other words, the sub-micromolar range.
Still for that read-out and setting: to `CC(=O)N[C@H]1CSCc2cc3cc(c2)CSC[C@@H](C(=O)N[C@@H](CC(C)C)C(=O)N[C@@H](Cc2c[nH]cn2)C(=O)N[C@@H](CCC(N)=O)C(=O)N[C@@H](CC(=O)O)C(=O)N[C@@H](CC(C)C)C(=O)N[C@H](C(N)=O)CSC3)N(C)C(=O)[C@H](CCCNC(=N)N)NC(=O)[C@H](C)NC(=O)[C@@H]2CCCN2C(=O)[C@H](Cc2c[nH]c3ccccc23)NC(=O)[C@H](CO)NC1=O` [Ac-(06-34-18) NMeCys2] (Ac-CSWPAR[NMeC]LHQDLC-NH2; linker 1-7-13 via TBMB) belongs 418 nM; to `CC(=O)N[C@H]1CSCc2cc3cc(c2)CSC[C@H](NC(=O)[C@H](CCCNC(=N)N)NC(=O)[C@H](C)N(C)C(=O)[C@@H]2CCCN2C(=O)[C@H](Cc2c[nH]c4ccccc24)NC(=O)[C@H](CO)N(C)C1=O)C(=O)N[C@@H](CC(C)C)C(=O)N[C@@H](Cc1c[nH]cn1)C(=O)N[C@@H](CCC(N)=O)C(=O)N[C@@H](CC(=O)O)C(=O)N[C@@H](CC(C)C)C(=O)N[C@H](C(N)=O)CSC3` [Ac-(06-34-18) NMeSer1, NMeAla4] (Ac-C[NMeS]WP[NMeA]RCLHQDLC-NH2; linker 1-7-13 via TBMB), 444 nM.

For the origin of these results see US9994617B2, “Modulation of structured polypeptide specificity” (BICYCLE THERAPEUTICS LIMITED, priority 2011, dated 2018).
